From US7566737B2 (Genfit, priority 2002, dated 2009)

Legend:
LDL = assay: Protection against LDL oxidation by copper (conjugated diene formation); assay type: biochemical
Description: LDL oxidation is an important alteration and plays a predominant role in the establishment and development of atherosclerosis (Jurgens G et al., 1987). […] Unless otherwise indicated, the reagents were from Sigma (St Quentin, France). LDL were prepared according to the method described by (Havel R J et al., 1955). The solutions of test compounds were prepared at 10^−2 M concentration in bicarbonate buffer (pH 9) and diluted in PBS to obtain final concentrations ranging from 0.1 to 100 μM for a total ethanol concentration of […]. Prior to oxidation, EDTA was removed from the LDL preparation by dialysis. Oxidation then took place at 30° C. by addition of 100 μl of 16.6 μM CuSO4 solution to 160 μL of LDL (125 μg protein/ml) and 20 μl of a test compound solution. The formation of dienes, the species under observation, was followed by measuring optical density at 234 nm in the samples treated with the compounds but in the presence or absence of copper. Optical density at 234 nm was measured every 10 minutes for 8 hours in a thermostated spectrophotometer (Tecan Ultra 380). The compounds were considered to have antioxidant activity when they induced a longer lag phase and reduced the rate of oxidation and the amount of dienes formed in comparison with the control sample.

HaCat cells = assay: Antioxidant properties on cell cultures (carboxy-H2DCFDA fluorescence, AAPH stress), keratinocytes; assay type: cell-based, human; settings: 25 μM for 24 h, AAPH 750 μM
In short: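 Cells were pretreated 24 h with compound at 25 μM, loaded 30 min at 37 °C with 25 μM carboxy-H2DCFDA, then stressed 30 min with 750 μM AAPH in phenol-red- and serum-free medium. ROS read as fluorescence ([…]); activity expressed as reduction in fluorescence signal.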

human PPARα = target: T1, human PPARα (Homo sapiens, UniProt Q07869); assay: PPARα/Gal4 transactivation system; assay type: cell-based
T1 construct: expressed in transfected cells; host or cells: RK13 or COS-7
T1 sequence (Q07869 239-466 limits assumed): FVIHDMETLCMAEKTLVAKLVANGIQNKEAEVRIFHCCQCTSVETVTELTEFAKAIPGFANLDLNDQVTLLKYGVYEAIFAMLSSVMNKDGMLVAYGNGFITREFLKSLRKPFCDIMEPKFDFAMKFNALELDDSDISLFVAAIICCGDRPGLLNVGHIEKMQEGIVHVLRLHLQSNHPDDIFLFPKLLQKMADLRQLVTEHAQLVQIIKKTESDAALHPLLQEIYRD
In short: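 Gal4-DBD fused to human PPAR ligand-binding (DEF) domain with Gal4-responsive luciferase reporter, in transfected RK13 or COS-7 cells. RK13: compounds at 10, 30, 100 μM or 1, 10, 100 μM for 24 h, dual-luciferase read, normalised to protein; COS-7: 24 h activation at 37° C in serum-free medium, luciferase read-out.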

| induction factor (luminescent signal relative to untreated cells) (human PPARα; 1 μM) | induction factor (luminescent signal relative to untreated cells) (human PPARα; 10 μM) | maximum induction factor (human PPARα; at the 10 or 1 μm concentrations) | SMILES | lag phase of conjugated diene formation (LDL; 10^−4M, FIG. 1-7, copper alone 82 minutes) | antioxidant properties on cell cultures (in words) (HaCat cells) | lag phase of conjugated diene formation (LDL; 10^−4M, FIG. 1-12, copper alone 120 minutes) | rate of conjugated diene formation (LDL; 10^−4M, FIG. 1-13, copper alone 1.8) | maximum amount of conjugated dienes formed (LDL; FIG. 1-14, copper alone 372) |
| --- | --- | --- | --- | --- | --- | --- | --- | --- |
| 28 | 25 | – | CSc1ccc(C(=O)/C=C/c2cc(C)c(OC(C)(C)C(=O)O)c(C)c2)cc1 [Compound 29, 1-[4-methylthiophenyl]-3-[3,5-dimethyl-4-carboxydimethylmethyloxyphenyl]prop-2-en-1-one] | 135 min | antioxidant properties | – | – | – |
| – | – | 34 | Cc1cc(/C=C/C(=O)c2ccc(Br)cc2)cc(C)c1OC(C)(C)C(=O)O [Compound 41, 1-[4-bromophenyl]-3-[3,5-dimethyl-4-carboxydimethylmethyloxyphenyl]prop-2-en-1-one] | – | antioxidant properties | 411 min | 0.54 nmol/min/mg of LDL | 71 nmol per mg of LDL |
